# Experimental data from US12378224B2 (Dong-A Socio Holdings Co., Ltd., priority 2016, dated 2025).
# Biological target: human MER (528-end) (Homo sapiens (Human), UniProt Q12866)
# Assay: HTRF Kinase Activity Biochemical Assay (KinEASE-TK)
# Details: 10 uM ATP
# Description: For the SAR (structure-activity relationship) and compound screening, HTRF (Homogeneous Time Resolved Fluorescence) kinase activity assay was employed for all MER, AXL and TYRO3 kinases using Cisbio HTRF® KinEASE™-TK kit (Cisbio, USA). The kit includes biotin-labeled TK substrate, streptavidin-XL665, Eu3+-cryptate-labeled TK antibody and HTRF® Detection buffer. There are two main steps in the kinase assay: kinase reaction and detection of phosphorylated substrate. The reaction was carried out in white low volume 384-well plate (Corning, USA) with 25 nL compound in dimethyl sulfoxide in each well. […] Then the reaction was stopped after 1 hour incubation at room temperature by adding 5 uL of HTRF® Detection buffer which also contains 0.375 nM Eu3+-cryptate-labeled TK antibody and 0.062 uM streptavidin-XL665(SA-XL665) to allow for detection of the phosphorylated peptide product. After 1 h incubation at room temperature, the fluorescence intensity was measured with Envision™ plate reader (PerkinElmer, USA). Upon excitation at 340 nm by UV, the energy from Eu3+ donor of the antibody is transferred to the FRET acceptor XL665, and […] emits light at 665 nm. The level of kinase activity was quantified by the HTRF ratio that calculated from the intensity of emission at 665 nm and emission at 620 nm (fluorescence intensity @ 665 nm/fluorescence intensity @ 620 nm×10,000). The recombinant protein of human MER (528-end) was purchased from Carnabio, Japan. The recombinant human AXL (473-end) and TYRO3 (455-end) were purchased from SignalChem, Canada.
# Sequence of human MER (528-end) (Q12866 528-999 limits assumed): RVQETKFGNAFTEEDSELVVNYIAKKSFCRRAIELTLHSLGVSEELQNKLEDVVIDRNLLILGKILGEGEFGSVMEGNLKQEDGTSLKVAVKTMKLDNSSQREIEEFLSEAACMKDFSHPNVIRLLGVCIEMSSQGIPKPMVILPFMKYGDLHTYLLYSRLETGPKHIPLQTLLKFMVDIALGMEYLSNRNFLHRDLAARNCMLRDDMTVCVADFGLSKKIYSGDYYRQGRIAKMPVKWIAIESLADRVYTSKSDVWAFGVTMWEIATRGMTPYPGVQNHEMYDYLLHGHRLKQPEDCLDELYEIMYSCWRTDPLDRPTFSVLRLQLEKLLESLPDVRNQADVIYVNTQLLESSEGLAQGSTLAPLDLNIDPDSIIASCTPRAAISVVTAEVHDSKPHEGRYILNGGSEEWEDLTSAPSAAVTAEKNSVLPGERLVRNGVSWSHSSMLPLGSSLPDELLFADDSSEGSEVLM
row,SMILES,IC50 [nM]
1,"Cn1cc(-c2cnc(N)c(C(=O)N[C@@H]3CCN(C(=O)Oc4ccccc4CO)C3)c2)cn1 [Example 71, 2-(hydroxymethyl)phenyl (R)-3-(2-amino-5-(1-methyl-1H-pyrazol-4-yl)nicotinamido)pyrrolidine-1-carboxylate]",> 1000
2,"Cn1cc(-c2cnc(N)c(C(=O)N[C@@H]3CCN(C(=O)Oc4ccc5ncccc5c4)C3)c2)cn1 [Example 72, quinolin-6-yl (R)-3-(2-amino-5-(1-methyl-1H-pyrazol-4-yl)nicotinamido)pyrrolidine-1-carboxylate]",> 1000
3,"Cn1cc(-c2cnc(N)c(C(=O)N[C@@H]3CCN(C(=O)Oc4cccc5cccnc45)C3)c2)cn1 [Example 73, quinolin-8-yl (R)-3-(2-amino-5-(1-methyl-1H-pyrazol-4-yl)nicotinamido)pyrrolidine-1-carboxylate]",> 1000
4,"CCNc1cc(OC(=O)N2CC[C@@H](NC(=O)c3cc(-c4cnn(C)c4)cnc3N)C2)ccc1C [Example 74, 3-(ethylamino)-4-methylphenyl (R)-3-(2-amino-5-(1-methyl-1H-pyrazol-4-yl)nicotinamido)pyrrolidine-1-carboxylate]",> 1000
5,"Cn1cc(-c2cnc(N)c(C(=O)N[C@@H]3CCN(C(=O)Oc4ccc(Cl)cc4C4CCCCC4)C3)c2)cn1 [Example 75, 4-chloro-2-cyclohexylphenyl (R)-3-(2-amino-5-(1-methyl-1H-pyrazol-4-yl)nicotinamido)pyrrolidine-1-carboxylate]",> 1000
6,"CC(=O)Nc1cccc(OC(=O)N2CC[C@@H](NC(=O)c3cc(-c4cnn(C)c4)cnc3N)C2)c1 [Example 76, 3-acetamidophenyl (R)-3-(2-amino-5-(1-methyl-1H-pyrazol-4-yl)nicotinamido)pyrrolidine-1-carboxylate]",> 1000
7,"Cn1cc(-c2cnc(N)c(C(=O)N[C@@H]3CCN(C(=O)Oc4ccc(S(C)(=O)=O)cc4)C3)c2)cn1 [Example 77, 4-(methylsulfonyl)phenyl (R)-3-(2-amino-5-(1-methyl-1H-pyrazol-4-yl)nicotinamido)pyrrolidine-1-carboxylate]",> 1000
8,"CN(C)Cc1ccccc1OC(=O)N1CC[C@@H](NC(=O)c2cc(-c3cnn(C)c3)cnc2N)C1 [Example 78, 2-((dimethylamino)methyl)phenyl (R)-3-(2-amino-5-(1-methyl-1H-pyrazol-4-yl)nicotinamido)pyrrolidine-1-carboxylate]",> 1000
9,"Cn1cc(-c2cnc(N)c(C(=O)N[C@@H]3CCN(C(=O)OCc4ccccc4)C3)c2)cn1 [Example 80, benzyl (R)-3-(2-amino-5-(1-methyl-1H-pyrazol-4-yl)nicotinamido)pyrrolidine-1-carboxylate]",> 1000
10,"Nc1ncc(-c2ccc(CO)cc2)cc1C(=O)N[C@@H]1CCN(C(=O)Oc2cccc(-c3ccccc3)c2)C1 [Example 81, [1,1′-biphenyl]-3-yl (R)-3-(2-amino-5-(4-(hydroxymethyl)phenyl)nicotinamido)pyrrolidine-1-carboxylate]",100 to 1000
11,"Nc1ncc(-c2ccc(C(=O)N3CCOCC3)cc2)cc1C(=O)N[C@@H]1CCN(C(=O)Oc2cccc(-c3ccccc3)c2)C1 [Example 83, [1,1′-biphenyl]-3-yl (R)-3-(2-amino-5-(4-(morpholine-4-carbonyl)phenyl)nicotinamido)pyrrolidine-1-carboxylate]",100 to 1000
12,"Nc1ncc(-c2ccc(F)c(F)c2)cc1C(=O)N[C@@H]1CCN(C(=O)Oc2cccc(-c3ccccc3)c2)C1 [Example 84, [1,1′-biphenyl]-3-yl (R)-3-(2-amino-5-(3,4-difluorophenyl)nicotinamido)pyrrolidine-1-carboxylate]",> 1000
13,"Nc1ncc(Br)cc1C(=O)N[C@@H]1CCN(C(=O)Oc2cccc(-c3ccccc3)c2)C1 [Example 85, [1,1′-biphenyl]-3-yl (R)-3-(2-amino-5-bromonicotinamido)pyrrolidine-1-carboxylate]",> 1000
14,"Cc1cc(OC(=O)N2CC[C@@H](NC(=O)c3cc(-c4cnn(C)c4)cnc3N)C2)ccc1Cl [Example 86, 4-chloro-3-methylphenyl (R)-3-(2-amino-5-(1-methyl-1H-pyrazol-4-yl)nicotinamido)pyrrolidine-1-carboxylate]",> 1000
15,"Cn1cc(-c2cnc(N)c(C(=O)N[C@@H]3CCN(C(=O)Oc4cccc(C#N)c4)C3)c2)cn1 [Example 87, 3-cyanophenyl (R)-3-(2-amino-5-(1-methyl-1H-pyrazol-4-yl)nicotinamido)pyrrolidine-1-carboxylate]",> 1000
16,"Cn1cc(-c2cnc(N)c(C(=O)N[C@@H]3CCN(C(=O)Oc4ccc(Cl)c(Cl)c4)C3)c2)cn1 [Example 88, 3,4-dichlorophenyl (R)-3-(2-amino-5-(1-methyl-1H-pyrazol-4-yl)nicotinamido)pyrrolidine-1-carboxylate]",> 1000
17,"Cn1cc(-c2cnc(N)c(C(=O)N[C@@H]3CCN(C(=O)Oc4ccc(N)c(Cl)c4)C3)c2)cn1 [Example 89, 4-amino-3-chlorophenyl (R)-3-(2-amino-5-(1-methyl-1H-pyrazol-4-yl)nicotinamido)pyrrolidine-1-carboxylate]",> 1000
18,"Cn1cc(-c2cnc(N)c(C(=O)N[C@@H]3CCN(C(=O)Oc4cc(F)cc(F)c4)C3)c2)cn1 [Example 90, 3,5-difluorophenyl (R)-3-(2-amino-5-(1-methyl-1H-pyrazol-4-yl)nicotinamido)pyrrolidine-1-carboxylate]",> 1000
19,"Cc1cc(C)cc(OC(=O)N2CC[C@@H](NC(=O)c3cc(-c4cnn(C)c4)cnc3N)C2)c1 [Example 91, 3,5-dimethylphenyl (R)-3-(2-amino-5-(1-methyl-1H-pyrazol-4-yl)nicotinamido)pyrrolidine-1-carboxylate]",> 1000
20,"COC(=O)c1ccccc1OC(=O)N1CC[C@@H](NC(=O)c2cc(-c3cnn(C)c3)cnc2N)C1 [Example 92, 2-(methoxycarbonyl)phenyl (R)-3-(2-amino-5-(1-methyl-1H-pyrazol-4-yl)nicotinamido)pyrrolidine-1-carboxylate]",> 1000
21,"CCc1ccc(OC(=O)N2CC[C@@H](NC(=O)c3cc(-c4cnn(C)c4)cnc3N)C2)cc1 [Example 93, 4-ethylphenyl (R)-3-(2-amino-5-(1-methyl-1H-pyrazol-4-yl)nicotinamido)pyrrolidine-1-carboxylate]",100 to 1000
22,"Cc1ccc(OC(=O)N2CC[C@@H](NC(=O)c3cc(-c4cnn(C)c4)cnc3N)C2)cc1C [Example 94, 3,4-dimethylphenyl (R)-3-(2-amino-5-(1-methyl-1H-pyrazol-4-yl)nicotinamido)pyrrolidine-1-carboxylate]",> 1000
23,"CN1CCC(n2cc(-c3cnc(N)c(C(=O)N[C@@H]4CCN(C(=O)Oc5cccc(-c6ccccc6)c5)C4)c3)cn2)CC1 [Example 96, [1,1′-biphenyl]-3-yl (R)-3-(2-amino-5-(1-(1-methylpiperidin-4-yl)-1H-pyrazol-4-yl)nicotinamido)pyrrolidine-1-carboxylate]",100 to 1000
24,"Cn1cc(-c2cnc(N)c(C(=O)N[C@@H]3CCN(C(=O)Oc4cc5ccccc5cc4O)C3)c2)cn1 [Example 97, 3-hydroxynaphthalen-2-yl (R)-3-(2-amino-5-(1-methyl-1H-pyrazol-4-yl)nicotinamido)pyrrolidine-1-carboxylate]",> 1000
25,"Cn1cc(-c2cnc(N)c(C(=O)N[C@@H]3CCN(C(=O)Oc4ccccc4O)C3)c2)cn1 [Example 98, 2-hydroxyphenyl (R)-3-(2-amino-5-(1-methyl-1H-pyrazol-4-yl)nicotinamido)pyrrolidine-1-carboxylate]",> 1000
